Laboratory results reported in patent publication US7749729B2, “Methods for assessing the risk for development of cardiovascular disease” (University of Washington, priority 2004, dated 2010).

How the values were obtained:
[1] = system: mock-transfected BHK cells (low ABCA1); assay: Cholesterol efflux from [3H]cholesterol-labeled mock-transfected BHK cells; format: cell-based, hamster; conditions: 2 to 4 h incubation
Experimental: (§1) FIG. 11 describes cholesterol efflux activities of native and HOCl-oxidized HDL, apo A-I, and peptide 18A. [^3H]Cholesterol-labeled mock-(A, C) or ABCA1-transfected (A-C) BHK cells were incubated for 4 h with native (Ctrl), H2O2-oxidized, or HOCl-oxidized HDL (20 µg/mL) or apo A-I (5 µg/mL) (A), for 2 h with 5 µg/mL apo A-I oxidized with the indicated mole ratio of HOCl (B), or for 2 h with control (−) or HOCl-oxidized (+) peptide Ac-18A-NH2 (20 µg/mL) (C). At the end of the incubation, [^3H]cholesterol efflux to the acceptor particle was measured. *P<0.01 compared with controls.
Cell Culture and Cholesterol Efflux. Baby hamster kidney (BHK) cells expressing mifepristone-inducible human ABCA1 were generated as previously described (35). Cellular cholesterol was labeled by adding 1 μCi/mL [^31H]cholesterol (NEN Life Science Products) to the growth medium. Twenty four hours later, strong expression of ABCA1 was induced by incubating the cells for 20 h with DMEM containing 1 mg/mL bovine serum albumin (DMEM/BSA) and 1 nM mifepristone (Vaughan et al., 2003. J Lipid Res 44:1373-1380). […] Cholesterol efflux mediated by HDL, apo A-I, or peptide was calculated as the percentage of total [^31H]cholesterol (medium plus cell) released into the medium after subtracting the value obtained with DMEM/BSA alone. […]

[2] = biological target: T1, myeloperoxidase (Homo sapiens, UniProt P05164); assay: Nitration of HDL by the myeloperoxidase-H2O2-NO2- system (3-nitrotyrosine formation, absorbance at 430 nm); format: biochemical; conditions: 250 μM H2O2, 500 μM NO2-
T1 construct: from tissue; host or cells: human neutrophils
Experimental: FIG. 1 describes nitration of HDL by the myeloperoxidase-H2O2-nitrite system. (A,C) HDL (1 mg/ml protein) was incubated for 60 min or the indicated time at 37° C. in phosphate buffer (20 mM sodium phosphate, pH 7.4, 100 μM DTPA) supplemented with 50 nM myeloperoxidase, 250 μM H2O2 and 500 μM NO2^−. Where indicated, the concentrations of (B) NO2^− were varied. 3-Nitrotyrosine formation was monitored spectroscopically following alkalinization of the reaction mixture.
FIG. 2 describes the effect of Cl^− or taurine on HDL nitration by the myeloperoxidase-H2O2—NO2^− system or HOCl—NO2^−. HDL was exposed for 60 min at 37° C. to myeloperoxidase in phosphate buffer supplemented with 250 μM H2O2, 500 μM NO2^− and (A) the indicated concentration of Cl^− or (B) the indicated concentration of taurine and 100 mM Cl^−. […]
HDL oxidation in vitro. […] Concentrations of HOCl and H2O2 were determined spectrophotometrically (ε292=350 M^−1 cm^−1 ε240=39.4 M^−1 cm^−1) (48,49). 3-Nitrotyrosine formation in a 300 μL aliquot of the reaction mixture was determined in a microplate reader by monitoring absorbance at 430 nm following the addition of NaOH to adjust the pH>9.
Myeloperoxidase generates 3-nitrotyrosine in HDL protein under physiologically relevant in vitro conditions. […] We monitored the formation of 3-nitrotyrosine spectroscopically by quantifying absorbance of the alkalinized reaction mixture at 430 nm.

[3] = system: ABCA1-transfected BHK cells; assay: Cholesterol efflux from [3H]cholesterol-labeled ABCA1-transfected BHK cells; format: cell-based, hamster; conditions: for effect of oxidation of the acceptor on cholesterol efflux, compared with native acceptor: ABCA1-transfected BHK cells, acceptor oxidized with HOCl or H2O2
Experimental: as §1
Cell Culture and Cholesterol Efflux. Baby hamster kidney (BHK) cells expressing mifepristone-inducible human ABCA1 were generated as previously described (35). Cellular cholesterol was labeled by adding 1 μCi/mL [^31H]cholesterol (NEN Life Science Products) to the growth medium. Twenty four hours later, strong expression of ABCA1 was induced by incubating the cells for 20 h with DMEM containing 1 mg/mL bovine serum albumin (DMEM/BSA) and 1 nM mifepristone (Vaughan et al., 2003. J Lipid Res 44:1373-1380). To measure cholesterol efflux, mock- or ABCA1-transfected cells were incubated with DMEM/BSA without or with HDL, apo A-I, or peptide. After 2 to 4 h, the medium and cells were assayed for [^3H]cholesterol as described (Id.). Cholesterol efflux mediated by HDL, apo A-I, or peptide was calculated as the percentage of total [^31H]cholesterol (medium plus cell) released into the medium after subtracting the value obtained with DMEM/BSA alone.
We exposed HDL or purified apo A-I to HOCl or H2O2 (80:1 or 25:1, mol/mol, oxidant:HDL particle or oxidant:apo A-I) in a physiological buffer (138 mM NaCl, 2.7 mM KCl, 10 mM sodium phosphate) at neutral pH for 120 min at 37° C., terminating the reaction with a 20-fold molar excess (relative to oxidant) of methionine. […]

T1 sequence (P05164 279-745 limits assumed): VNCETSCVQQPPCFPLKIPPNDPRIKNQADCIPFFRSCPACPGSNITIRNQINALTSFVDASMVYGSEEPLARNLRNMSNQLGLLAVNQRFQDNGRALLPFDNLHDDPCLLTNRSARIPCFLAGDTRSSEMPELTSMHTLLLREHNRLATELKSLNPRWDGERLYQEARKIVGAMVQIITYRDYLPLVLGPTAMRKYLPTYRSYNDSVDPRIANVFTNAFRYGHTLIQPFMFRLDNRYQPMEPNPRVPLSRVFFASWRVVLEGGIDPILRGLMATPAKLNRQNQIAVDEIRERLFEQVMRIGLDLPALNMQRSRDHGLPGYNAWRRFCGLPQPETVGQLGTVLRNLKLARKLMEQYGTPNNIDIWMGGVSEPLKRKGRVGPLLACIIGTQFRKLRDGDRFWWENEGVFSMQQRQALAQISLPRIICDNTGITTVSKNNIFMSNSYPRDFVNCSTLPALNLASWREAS
T1 sequence (P05164 165-273 limits assumed): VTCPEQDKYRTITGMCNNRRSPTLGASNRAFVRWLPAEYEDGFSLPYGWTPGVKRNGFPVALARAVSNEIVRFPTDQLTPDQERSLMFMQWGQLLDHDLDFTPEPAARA

Row | Compound | cholesterol efflux to the acceptor [1] | effect of oxidation of the acceptor on cholesterol efflux, compared with native acceptor [3] | also measured
1 | Acetyl-18A-NH2 | promoted cholesterol efflux | – | –
2 | NCCS(=O)(=O)O [Taurine, 2-aminoethanesulfonic acid] | – | – | effect on HDL nitration (3-nitrotyrosine formation) in the presence of Cl- ([2]; myeloperoxidase, 100 mM Cl-, 60 min, 37° C.): no effect
3 | H2O2-oxidized apo A-I: purified apo A-I exposed to H2O2 (25:1 mol/mol oxidant:apo A-I) | – | no effect | –
4 | catalase | – | – | effect on HDL nitration (3-nitrotyrosine formation) ([2]; 1 mg/ml HDL, 50 nM myeloperoxidase, pH 7.4, 37° C., catalase 200 nM, sodium azide 10 mM): inhibited
5 | apo A-I: purified apolipoprotein A-I, HDL's major protein | essentially no cholesterol efflux activity | – | cholesterol efflux to the acceptor ([3]; ABCA1-transfected BHK cells (ABCA1 overexpressed), 2 to 4 h incubation): became active
6 | HOCl-oxidized apo A-I: purified apo A-I exposed to HOCl (25:1 mol/mol oxidant:apo A-I) | – | significant decrease | –
